Reference: patent publication US6525001B1, “Substituted pyrimidine and pyridine herbicides” (Mid-American Commercialization Corporation, priority 1997, dated 2003)

melting point	SMILES
82 to 91 °C	Cc1cnc(-n2ccc(C(F)(F)F)n2)nc1C(=O)c1cccc(C(F)(F)F)c1 [Example 4, [5-methyl-2-[3-(trifluoromethyl)-1H-pyrazol-1-yl]-4-pyrimidinyl][3-(trifluoromethyl)phenyl]methanone]
98 to 100 °C	Cc1cnc(-c2ccc(C(F)(F)F)cc2)nc1C(=O)c1cccc(C(F)(F)F)c1 [Example 5, [5-methyl-2-[4-(trifluoromethyl)phenyl]-4-pyrimidinyl][3-(trifluoromethyl)phenyl]methanone]
